Reference: patent US7888329B2, “Substituted aryl piperidinylalkynyladenosines as A2AR agonists” (PGxHealth, LLC, priority 2006, dated 2011)

What was measured:
human A3 AR = target: T1, human A3 AR (Homo sapiens, UniProt P0DMS8); assay: Radioligand competition binding with 125I-ABA, membranes of HEK 293 cells stably expressing the receptor; conditions: Ki derived from IC50, class symbols
T1 construct: expressed in transfected cells; membranes
T1 sequence (P0DMS8 1-318): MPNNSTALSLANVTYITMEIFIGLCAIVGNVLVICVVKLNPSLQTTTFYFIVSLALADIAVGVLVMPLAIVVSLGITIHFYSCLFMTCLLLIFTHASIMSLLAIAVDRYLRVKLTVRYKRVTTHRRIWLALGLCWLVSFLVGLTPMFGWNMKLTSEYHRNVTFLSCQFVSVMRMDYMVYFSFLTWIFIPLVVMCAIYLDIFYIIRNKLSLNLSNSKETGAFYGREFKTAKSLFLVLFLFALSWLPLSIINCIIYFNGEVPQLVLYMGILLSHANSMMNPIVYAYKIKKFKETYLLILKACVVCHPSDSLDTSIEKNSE
Experimental: (§1) Cell culture and membrane preparation. Sf9 cells were cultured in Grace's medium supplemented with 10% fetal bovine serum, 2.5 μg/ml amphotericin B and 50 μg/ml gentamycin in an atmosphere of 50% N2/50% O2. Viral infection was performed at a density of 2.5×10^6 cells/mL with a multiplicity of infection of two for each virus used. Infected cells were harvested 3 days post-infection and washed twice in insect PBS (PBS pH 6.3). Cells were then resuspended in lysis buffer (20 mM HEPES pH 7.5, 150 mM NaCl, 3 mM MgCl2, 1 mM α-mercaptoethanol (BME), 5 μg/mL leupeptin, 5 μg/mL pepstatin A, 1 μg/mL aprotinin, and 0.1 mM PMSF) and snap frozen for storage at −80° C. Cells were thawed on ice, brought to 30 mL total volume in lysis buffer, and burst by N2 cavitation (600 psi for 20 minutes). A low-speed centrifugation was performed to remove any unlysed cells (1000×g for 10 minutes), followed by a high-speed centrifugation (17,000×g for 30 minutes). The pellet from the final centrifugation was homogenized in buffer containing 20 mM HEPES pH 8, 1100 mM NaCl, 1% glycerol, 2 μg/mL leupeptin, 2 μg/mL pepstatin A, 2 μg/mL Aprotinin, 0.1 mM PMSF, and 10 μM GDP using a small glass homogenizer followed by passage through a 26 gauge needle. Membranes were aliquoted, snap frozen in liquid N2, and stored at −80° C. Membranes from cells stably expressing the human A1 AR (CHO K1 cells) or A3 AR (HEK 293 cells) were prepared as described (Robeva et al., 1996).
Radioligand Binding Assays. Radioligand binding to recombinant human A2A receptors in Sf9 cell membranes was performed using either the radiolabeled agonist, ^125I-APE (Luthin et al., 1995) or the radiolabeled antagonist, ^125I-ZM241385 (^125I-ZM). To detect the high affinity, GTPγS-sensitive state of A1 and A3 AR, we used the agonist, ^125I-ABA (Linden et al., 1985; Linden et al., 1993). Binding experiments were performed in triplicate with 5 μg (A2A) or 25 μg (A1 and A3) membrane protein in a total volume of 00.1 mL HE buffer (20 mM HEPES and 1 mM EDTA) with 1 U/mL adenosine deaminase and 5 mM MgCl2 with or without 50 μM GTPγS. Membranes were incubated with radioligands at room temperature for three hours (for agonists) or two hours (for antagonists) in Millipore Multiscreen® 96-well GF/C filter plates and assays were terminated by rapid filtration on a cell harvester (Brandel, Gaithersburg, Md.) followed by 4×150 μl washes over 30 seconds with ice cold 10 mM Tris-HCl, pH 7.4, 10 mM MgCl2. Nonspecific binding was measured in the presence of 50 μM NECA. Competition binding assays were performed as described (Robeva et al., 1996) using 0.5-1 nM ^125I-APE, ^125I-ZM241385, or ^125I-ABA. […] The Ki values for competing compound binding to a single site were derived from IC50 values with correction for radioligand and competing compound depletion as described previously (Linden, 1982).

human A1 AR = target: T2, human A1 AR (Homo sapiens, UniProt P30542); assay: Radioligand competition binding with 125I-ABA, membranes of CHO K1 cells stably expressing the receptor; conditions: Ki derived from IC50, class symbols
T2 construct: expressed in transfected cells; membranes
T2 sequence (P30542 1-326): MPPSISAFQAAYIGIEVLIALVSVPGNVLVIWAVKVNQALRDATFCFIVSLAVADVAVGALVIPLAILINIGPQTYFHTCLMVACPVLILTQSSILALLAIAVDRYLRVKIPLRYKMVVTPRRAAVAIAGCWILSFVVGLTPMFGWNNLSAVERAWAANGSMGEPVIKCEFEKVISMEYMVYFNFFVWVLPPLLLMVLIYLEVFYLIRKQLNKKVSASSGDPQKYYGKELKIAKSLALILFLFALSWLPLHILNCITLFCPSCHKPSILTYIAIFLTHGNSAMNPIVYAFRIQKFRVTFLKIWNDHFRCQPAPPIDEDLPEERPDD

[1] = tested on: Purified human neutrophils; assay: Luminol enhanced chemiluminescence (neutrophil oxidative activity), fMLP stimulated; assay type: cell-based; conditions: Homo sapiens, Neutrophil; read-out: Functional
Text: Chemiluminescence Methods: Luminol enhanced chemiluminescence, a measure of neutrophil oxidative activity, is dependent upon both superoxide production and mobilization of the granule enzyme myeloperoxidase. The light is emitted from unstable high-energy oxygen species such as hypochlorous acid and singlet oxygen generated by activated neutrophils.
Purified human neutrophils (2×10^6/ml) suspended in Hanks balanced salt solution containing 0.1% human serum albumin (HA), adenosine deaminase (1 U/mL) and rolipram (100 nM) were incubated (37 C) in a water bath for 15 min with or without rhTNF (10 U/ml). Following incubation 100 µL aliquots of the PMN were transferred to wells (White walled clear bottom 96 well tissue culture plates Costar #3670; 2 wells/condition) containing […] and luminol (final concentration 100M) with or without adenosine agonist (final agonist concentrations 0.01-1000 nM). The plate was incubated 5 min (37 C) and then fMLP (50 l in HA; final concentration […]) was added to all wells.
Peak chemiluminescence was determined with a Victor 1420 Multilabel Counter in the chemiluminescence mode using the Wallac Workstation software. Data are presented as peak chemiluminescence as percent of activity in the absence of an adenosine agonist. The EC50 was determined using PRISM software. All compounds were tested with PMNs from three separate donors.

[2] = target: T3, recombinant human A2A receptors (Homo sapiens, UniProt P29274); assay: Radioligand competition binding with 125I-APE or 125I-ZM241385, Sf9 cell membranes; conditions: 125I-APE or 125I-ZM241385, Sf9 membranes; class symbols
T3 construct: expressed in transfected cells; host or cells: Sf9 insect cells infected with virus; membranes
Experimental: as §1, with “C.” for “C. Membranes from cells stably expressing the human A1 AR (CHO K1 cells) or A3 AR (HEK 293 cells) were prepared as described (Robeva et al., 1996).”
Radioligand Binding Assays. […] Binding experiments were performed in triplicate with 5 μg (A2A) or 25 μg (A1 and A3) membrane protein in a total volume of 00.1 mL HE buffer (20 mM HEPES and 1 mM EDTA) with 1 U/mL adenosine deaminase and 5 mM MgCl2 with or without 50 μM GTPγS. Membranes were incubated with radioligands at room temperature for three hours (for agonists) or two hours (for antagonists) in Millipore Multiscreen® 96-well GF/C filter plates and assays were terminated by rapid filtration on a cell harvester (Brandel, Gaithersburg, Md.) followed by 4×150 μl washes over 30 seconds with ice cold 10 mM Tris-HCl, pH 7.4, 10 mM MgCl2. Nonspecific binding was measured in the presence of 50 μM NECA.

T3 sequence (P29274 whole entry): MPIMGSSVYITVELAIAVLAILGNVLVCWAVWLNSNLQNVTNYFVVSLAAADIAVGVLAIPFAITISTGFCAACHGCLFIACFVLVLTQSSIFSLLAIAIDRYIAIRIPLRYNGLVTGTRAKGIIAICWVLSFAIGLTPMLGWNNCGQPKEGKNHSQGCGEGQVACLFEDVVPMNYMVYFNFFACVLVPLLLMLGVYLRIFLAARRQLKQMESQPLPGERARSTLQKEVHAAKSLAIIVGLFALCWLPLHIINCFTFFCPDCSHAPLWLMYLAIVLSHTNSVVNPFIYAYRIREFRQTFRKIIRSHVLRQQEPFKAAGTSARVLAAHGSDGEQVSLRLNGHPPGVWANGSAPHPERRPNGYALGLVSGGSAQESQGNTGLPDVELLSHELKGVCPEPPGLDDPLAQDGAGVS

| Structure (SMILES) | Ki (human A3 AR) [nM] | Ki (human A1 AR) [nM] | EC50 [1] [nM] | Ki [2] [nM] |
| --- | --- | --- | --- | --- |
| Nc1nc(C#CCC2CCN(C(=O)Oc3ccccc3Cl)CC2)nc2c1ncn2[C@@H]1O[C@H](C(=O)NC2CC2)C(O)[C@@H]1O (some centres unmarked) [Compound 22, N-Cyclopropyl 2-{3-[1-(2-chlorophenyloxycarbonyl)-4-piperidinyl]-1-propyn-1-yl}adenosine-5′-uronamide] | > 100 | < 100 | < 10 | < 1 |
| COc1ccc(OC(=O)N2CCC(CC#Cc3nc(N)c4ncn([C@@H]5O[C@H](C(=O)NC6CC6)C(O)[C@@H]5O)c4n3)CC2)cc1 (some centres unmarked) [Compound 23] | < 100 | < 100 | < 1 | < 1 |
| CCNC(=O)[C@H]1O[C@@H](n2cnc3c(N)nc(C#CCC4CCN(C(=O)Oc5ccc(F)cc5)CC4)nc32)[C@@H](O)C1O (some centres unmarked) [Compound 24, N-Ethyl 2-{3-[1-(4-fluorophenyloxycarbonyl)-4-piperidinyl]-1-propyn-1-yl}adenosine-5′-uronamide] | < 10 | < 100 | < 1 | < 1 |
| CCNC(=O)[C@H]1O[C@@H](n2cnc3c(N)nc(C#CCC4CCN(C(=O)Oc5ccc(C(=O)OC)cc5)CC4)nc32)[C@@H](O)C1O (some centres unmarked) [Compound 25, N-Ethyl 2-{3-[1-(4-methoxycarboxyphenyloxycarbonyl)-4-piperidinyl]-1-propyn-1-yl}adenosine-5′-uronamide] | < 100 | > 100 | < 10 | < 10 |
| CCNC(=O)[C@H]1O[C@@H](n2cnc3c(N)nc(C#CCC4CCN(C(=O)Oc5ccc(Cl)cc5)CC4)nc32)[C@@H](O)C1O (some centres unmarked) [Compound 26, N-Ethyl 2-{3-[1-(4-chlorophenyloxycarbonyl)-4-piperidinyl]-1-propyn-1-yl}adenosine-5′-uronamide] | < 10 | < 100 | < 1 | < 1 |
| Nc1nc(C#CCC2CCN(C(=O)Oc3ccc(Cl)cc3)CC2)nc2c1ncn2[C@@H]1O[C@H](CO)[C@@H](O)[C@H]1O [Compound 27, 2-{3-[1-((4-Chloro)phenoxycarbanoyl)piperidin-4-yl]propyn-1-yl}adenosine] | < 100 | < 100 | < 10 | < 1 |
| COc1ccc(OC(=O)N2CCC(CC#Cc3nc(N)c4ncn([C@@H]5O[C@H](CO)[C@@H](O)[C@H]5O)c4n3)CC2)cc1 [Compound 28, 2-{3-[1-((4-Methoxy)phenoxycarbanoyl)piperidin-4-yl]propyn-1-yl}adenosine] | < 100 | < 100 | < 10 | < 1 |
| Cc1ccc(OC(=O)N2CCC(CC#Cc3nc(N)c4ncn([C@@H]5O[C@H](CO)[C@@H](O)[C@H]5O)c4n3)CC2)cc1 [Compound 29, 2-{3-[1-((4-Methyl)phenoxycarbanoyl)piperidin-4-yl]propyn-1-yl}adenosine] | < 100 | < 100 | < 10 | < 1 |
| Nc1nc(C#CCC2CCN(C(=O)OCc3ccc([N+](=O)[O-])cc3)CC2)nc2c1ncn2[C@@H]1O[C@H](CO)[C@@H](O)[C@H]1O [Compound 30, 2-{3-[1-((4-Nitro)benzyloxycarbanoyl)piperidin-4-yl]propyn-1-yl}adenosine] | < 100 | < 100 | < 10 | < 10 |
| CCNC(=O)[C@H]1O[C@@H](n2cnc3c(N)nc(C#CCC4CCN(C(=O)Oc5ccccc5Cl)CC4)nc32)[C@@H](O)C1O (some centres unmarked) [Compound 31, N-Ethyl 2-{3-[1-(2-chlorophenyloxycarbonyl)-4-piperidinyl]-1-propyn-1-yl}adenosine-5′-uronamide] | < 10 | < 100 | < 10 | < 1 |
| CCNC(=O)[C@H]1O[C@@H](n2cnc3c(N)nc(C#CCC4CCN(C(=O)OCc5ccccc5)CC4)nc32)[C@@H](O)C1O (some centres unmarked) [Compound 32, N-Ethyl 2-{3-[1-(benzyloxycarbonyl)-4-piperidinyl]-1-propyn-1-yl}adenosine-5′-uronamide, reference compound] | < 100 | > 100 | < 10 | < 1 |
